Measured values reported in patent US20130017537A1, “METHOD OF IN-VITRO IMMUNOASSAY” (BASF Beauty Care Solutions France S.A.S., priority 2011, published 2013).

System: type V collagen in the ECM
Test: Influence of the lysis solution on the assay of type V collagen in the ECM
Assay type: cell-based, human
Settings: repeat experiment, Table 3.2
Protocol: Thus, normal human fibroblasts obtained from abdominal biopsies were seeded in a 96-well plate and cultured in a defined medium (FGM) to 100% confluency.
After 48 hours of culture postconfluency at 37° C. under 0.5% CO2, the culture medium was collected.
The time of application of the lysis solution tested was 10 minutes at room temperature and with stirring.
The collagen V in the ECM was assayed directly on the ECM by using an anticollagen V antibody. A secondary antibody conjugated to europium was used with a detection reagent and the fluorescence was measured. (Delfia® kit—Perkin Elmer).
The experiment was repeated and the lysis solutions tested were as follows: • solution according to the invention NH4OH: 110 μl of an ammonium hydroxide solution at concentrations between 200 μM and 2 M. • Solution of monoethylamine at 20 Mm • Solution of diethylamine at 20 mM • Solution of triethylamine at 20 mM

CCN(CC)CC [Triethylamine, triethylamine]
Ratio: Coll/DNA % (NH4OH = 100): 21.13%

CCN [Monoethylamine, monoethylamine]
Ratio: Coll/DNA % (NH4OH = 100): 23.78%

CCNCC [Diethylamine, diethylamine]
Ratio: Coll/DNA % (NH4OH = 100): 17.33%
